Measurements taken from patent EP4663206A1, “NEXT-GENERATION ADC LINKER PLATFORM TECHNOLOGY AND POLYSACCHARIDE CROSS-LINKED COLLOIDAL PARTICLE-DRUG CONJUGATE” (Inventera Inc., priority 2023, dated 2024).

Legend:
[1] = tested on: cancer cells; details: cited from earlier work
[2] = stated in discussion, according to current reports; cited from earlier work
[3] = Shoulder MR arthrography image quality assessment, clinical comparative study NEMO-103 vs GBCA; type: in vivo, humans; details: supine position, over time
Protocol: FIGS. 25 and 26 illustrate the phase design and image quality assessment method of a clinical comparative study between NEMO-103, a dextran-crosslinked T1 MRI contrast agent, and Dotarem®, a representative clinical gadolinium-based contrast agent (GBCA) for T1 MRI. Phase I refers to MR arthrography (MRA) images acquired within 30 minutes after contrast agent administration. Phase II refers to MRA images acquired between 30 and 60 minutes post-administration, and Phase III refers to MRA images acquired between 110 and 130 minutes post-administration. In Comparison 1, no quantitative or qualitative differences were observed between NEMO-103-based MRA images acquired during Phase I and Phase II (FIG. 27). […] In Comparison 3, which compared NEMO-103-based MRA images from Phase II with GBCA-based MRA images, more prominent differences were observed (FIG. 29).
Amid growing safety concerns surrounding gadolinium-based contrast agents (GBCAs), iron (Fe)-based alternatives have emerged as a subject of active investigation. The present example evaluates the efficacy of NEMO-103 in comparison with a GBCA by assessing contrast-to-noise ratio (CNR) and MR arthrography (MRA) image quality. […] Both contrast agents effectively delineated key anatomical structures, including tissue contrast, sharpness, rotator cuff tendons, labral structures, and adjacent cartilage. […]

[4] = Phantom study, 3T MRI scanner (relaxivity)
Protocol: The measured r1 and r2 relaxivity values of NEMO-103 were 2.0 mM^-1s^-1 and 2.3 mM^-1s^-1, respectively (FIGS. 24d and 24e). The r2/r1 ratio, which is an important parameter for T1 MRI contrast agents, was calculated to be 1.15. […] For comparison, the measured r1 and r2 values of Dotarem® were 4.7 mM^-1s^-1 and 5.2 mM^-1s^-1, respectively, resulting in an r2/r1 ratio of 1.11.

[5] = tested on: BT-474 human breast cancer xenograft model; experiment: In vivo antitumor efficacy in cancer xenograft mouse model (intratumoral injection, tumor volume); set-up: species or system Balb/c nude mice; details: alone; Doxorubicin 2 mg/kg; TLRA1 agonist 6 nmol/mL (0.3 nmol)
Protocol: The antitumor efficacy of the drug was assessed by monitoring changes in tumor volume following administration. Cdex@TLRA1 and Cdex@TLRB1 were administered in a cancer xenograft mouse model to evaluate antitumor immune responses and subsequent tumor cell death.
Balb/c nude mice (6 weeks old) were used to establish a BT-474 human breast cancer xenograft model for in vivo efficacy evaluation. Approximately 1 × 10^6 BT-474 breast cancer cells were mixed with Matrigel at a 1:1 volume ratio and subcutaneously implanted into the dorsal flank of each mouse in a volume of approximately 100 µL.
Once tumor volumes reached approximately 50 mm^3, Cdex@TLRA1 and Cdex@TLRB1 were directly injected into the tumor masses, and tumor growth was monitored over a 2-week period to evaluate drug efficacy. The test substances were administered on days 0, 4, 7, 12, and 15 (see FIG. 18a). To enhance antitumor effects, doxorubicin was administered to all groups except the negative control group on days 1 and 9. A separate "doxorubicin only" group was included for comparative purposes (see FIG. 18b and Table 6).

For `CC[C@@]1(O)C(=O)OCc2c1cc1n(c2=O)Cc2c-1nc1cc(F)c(C)c3c1c2[C@@H](N)CC3` [DXd, exatecan], the “activity in cancer cells compared to SN-38” value [1] is listed as “approximately 10 fold”.

In the case of `CNC[C@H](O)[C@@H](O)[C@H](O)[C@H](O)CO.O=C([O-])CN1CCN(CC(=O)[O-])CCN(CC(=O)O)CCN(CC(=O)[O-])CC1.[Gd+3]` [Dotarem], the hydrodynamic size [2] is listed as less than 1 nm, the “incidence of axillary pouch obliteration compared to NEMO-103” value [3] is listed as “relatively higher incidence” and the r1 relaxivity [4] is listed as 4.7 mM⁻¹ s⁻¹.

With `COc1cccc2c1C(=O)c1c(O)c3c(c(O)c1C2=O)C[C@@](O)(C(=O)CO)C[C@@H]3O[C@H]1C[C@H](N)[C@H](O)[C@H](C)O1` [Doxorubicin] the tumor growth rate [5] was “reduction in tumor growth rate” and the tumor size [5] was “no significant decrease in tumor size”.
